Values of other authors in US7332183B2, “Multilayer dosage forms containing NSAIDs and triptans” (Pozen Inc., priority 2002, dated 2008).

Conditions: in vivo

half life	SMILES
about 17 hours	CS(=O)(=O)c1ccc(C2=C(c3ccccc3)C(=O)OC2)cc1 [rofecoxib]
about 7 hours	CCc1cccc2c3c([nH]c12)C(CC)(CC(=O)O)OCC3 (stereo not shown) [etodolac]
about 6 hours	CC(C(=O)O)c1ccc(-c2ccccc2)c(F)c1 (stereo not shown) [flurbiprofen]
about 4 hours	Cc1cccc(Nc2ccccc2C(=O)O)c1C [mefanamic acid]
